Test results reported in PMC5428058, “Local delivery of novel MRTF/SRF inhibitors prevents scar tissue formation in a preclinical model of fibrosis” (Scientific Reports, 2017).

Legend:
[1] = system: SRF reporter gene; test: SRF reporter gene assay in transfected cells; type: cell-based; conditions: human and rabbit conjunctival fibroblasts (3DA.Luc), HEK293 (SRE.L luc), 24 hours
Experimental: Human or rabbit conjunctival fibroblasts were plated at 2 × 10^4 cells/well in 24-well plates (Falcon, Fisher Scientific) for transient transfection. Conjunctival fibroblasts in each well were co-transfected using 2.5 μl Lipofectamine LTX and 0.5 μl Plus reagent (Invitrogen) with 8 ng of SRF reporter plasmid 3DA.Luc, 20 ng of pTK-Renilla-Luc and 172 ng of pEF in OptiMEM (Gibco)[58]. After 2 hours of transfection, fibroblasts were allowed to recover in DMEM +10% FCS overnight.
HEK293T cells were plated at 2 × 10^4 cells/well in 96-well plates (Falcon, Fisher Scientific) and co-transfected using Lipofectamine 2000 (Invitrogen) with 4 ng of SRF reporter plasmid SRE.L. luciferase, and 2 ng of either Gα12Q231L or pcDNA3.1/Zeo(−) diluted in Opti-MEM (Gibco). After 5 hours of transfection, cells were allowed to recover in DMEM +10% FCS overnight.
The next day, the cells were serum starved in DMEM +0.3% FCS and 5, 25, 50, or 100 μM of CCG-222740 or CCG-203971 or 0.1% DMSO control for 24 hours. The cells were then lysed and luciferase levels were measured using a Luciferase Assay System (Promega), according to the manufacturer’s instructions. Each experiment was carried out in triplicates for each condition and the experiment was repeated three times.

[2] = system: rabbit conjunctival tissue; test: histologic analysis of bleb tissue after glaucoma filtration surgery; type: in vivo; conditions: for expression of αSMA by cells in tissue sections / scar tissue formation (picrosirius red) compared to vehicle control: day 30; for newly laid extracellular matrix and collagen (Gomori's trichrome): day 30, vehicle versus treated
Experimental: We further evaluated the histologic differences after local delivery of CCG-222740 and CCG-203971. The white filtration tube was used as landmark and the plane of sectioning of the bleb area was performed 2 mm from the tube (black line in Fig. 5). Grading was performed using a modified system originally described by Shah et al.[34]. The left operated eyes were compared to the right non-operated eyes that were used as controls for the appearance of normal conjunctival tissue. The sections were graded using a scale of −4 to +4 (0 = same as control eye; 1 = 1–25% difference from control eye; 2 = 26–50% difference from control eye; 3 = 51–75% difference from control eye; 4 = >75% difference from control eye; prefix+, more than; prefix−, less than). Analysis was performed using the mean results in each treatment group.
The animals were sacrificed on day 30 and both eyes were enucleated. The eyes were fixed in formalin, embedded in paraffin, and sequential 4 μm tissue sections were cut.
The sections were stained with hematoxylin and eosin (for cellularity and inflammatory cells), Gomori’s trichrome (for collagen), picrosirius red (for degree of fibrosis and collagen deposition), and alpha-smooth muscle actin (αSMA) using a primary monoclonal mouse anti-human αSMA antibody (Clone 1A4; Dako, High Wycombe, UK) and a biotinylated secondary antibody (rabbit anti-mouse; Dako). All the left operated eyes were compared to the right non-operated eyes that were used as controls for the appearance of normal conjunctival tissue. The sections were graded using a modified grading system originally described by Shah et al.[34], with a scale of −4 to +4 according to the staining intensity. Grades were defined as 0 = same as control eye; 1 = 1–25% difference from control eye; 2 = 26–50% difference from control eye; 3 = 51–75% difference from control eye; 4 = >75% difference from control eye (prefix+, more than; prefix −, less than).

[3] = system: human conjunctival fibroblasts; test: cell viability assay (CellTiter 96 Aqueous one solution); type: cell-based; conditions: for cell viability: 24 hours
Experimental: Human conjunctival fibroblasts were plated at 6.25 × 10^3 cells/well in 96-well plates (Falcon, Fisher Scientific), and treated with 1, 3, 10, 30 or 100 μM of CCG-222740 or CCG-203971 or 0.1% DMSO control for 24 hours. 20 μl of CellTiter 96 Aqueous one solution (Promega) were then added to each well containing the samples in 100 μl of culture medium. The plate was incubated for 1 hour at 37 °C and the absorbance was measured at 490 nm on a SpectraMax Plus 384 spectrophotometer (Molecular Devices, California, USA). Each experiment was carried out in triplicates for each condition and the experiment was repeated three times.

[4] = system: rabbit conjunctival fibroblasts; test: fibroblast-populated collagen contraction assay (rabbit); type: cell-based; conditions: 7 days
Experimental: We screened two candidate MRTF/SRF pathway inhibitors, CCG-222740 and CCG-203971, using detached three-dimensional fibroblast-populated collagen gels[56], [57]. Human or rabbit conjunctival fibroblasts were seeded in a collagen Type I matrix (First Link UK Ltd, Birmingham, UK) at a concentration of 0.7 × 10^4 cells/ml. The fibroblast-populated collagen gel mixture was cast into the wells of MatTek dishes (MatTek Corp, MI, USA). The gels were detached from the edges of the well and 2 ml of growth medium were added to each well with 5, 25, 50, 75, or 100 μM of CCG-222740 or CCG-203971 or 0.1% DMSO control. Digital photographs were obtained daily and lattice areas were measured using Image J software (http://rsb.info.nih.gov/ij/). The gel size at day 7 was assessed as a percentage of lattice area on day 0. Each experiment was performed as triplicate gels per condition and the experiment was repeated on three separate days.

[5] = system: ACTA2 and CTGF in human conjunctival fibroblasts; test: MRTF/SRF target gene expression by qRT-PCR (human); type: cell-based; conditions: 24 hours, 10% FCS
Experimental: (§1) Human or rabbit conjunctival fibroblasts were plated at 1 × 10^5 cells/well in 6-well plates (Falcon, Fisher Scientific). The next day, the fibroblasts were treated with 5, 10, 25, or 50 μM of CCG-222740 or CCG-203971 or 0.1% DMSO control in DMEM +10% FCS for 24 hours. The fibroblasts were then lysed for RNA extraction using the Sigma RNA isolation kit (Sigma-Aldrich), according to the manufacturer’s instructions. Reverse transcription was carried out using the Transcriptor First Strand cDNA Synthesis Kit (Roche), according to the manufacturer’s instructions. qRT-PCR reactions were performed using SYBR green reagents (Life Technologies) on an HT7900 Fast Real-Time PCR system (Applied Biosystems). The human exonic primer sequences were: ACTA2, 5′-[…]-3′, 3′-[…]-5′; CTGF, 5′-CAGAGTGGAGCGCCTGTT-3′, 3′-CTGCAGGAGGCGTTGTCA-5′; GAPDH, 5′-[…]-3′, 3′-[…]-5′. The rabbit exonic primer sequences were ACTA2, 5′- […]-3′, 3′- […]-5′; GAPDH, 5′-CGAGACACGATGGTGAAGG-3′, 3′-[…]-5′. All mRNA values were normalised relative to that of GAPDH. Each experiment was carried out in triplicates for each treatment group and the experiment was repeated three times.

[6] = system: ACTA2 in rabbit conjunctival fibroblasts; test: ACTA2 gene expression by qRT-PCR (rabbit); type: cell-based; conditions: 24 hours
Experimental: as §1

Structure (SMILES)	inhibition of baseline SRF reporter activity [1]	expression of αSMA by cells in tissue sections [2]	scar tissue formation (picrosirius red) compared to vehicle control [2]	newly laid extracellular matrix and collagen (Gomori's trichrome) [2]	cell viability ([3]; 10 μM)	cell viability ([3]; 30 μM)	cell viability ([3]; 100 μM)	cytotoxicity, comparison ([3]; human conjunctival fibroblasts)	decrease of collagen matrix contraction, comparison [4]	expression of MRTF/SRF target genes ACTA2 and CTGF, comparison [5]	ACTA2 gene expression, comparison [6]
O=C(Nc1ccc(Cl)cc1)C1CCCN(C(=O)c2cccc(-c3ccco3)c2)C1 (stereo not drawn) [CCG-203971]	~100%	significantly decreased the expression of αSMA	significant decrease in scar tissue formation	present to a greater degree in the vehicle-treated group compared to	–	–	–	–	–	–	–
O=C(Nc1ccc(Cl)cc1)C1CN(C(=O)c2cccc(-c3ccco3)c2)CC(F)(F)C1 (stereo not drawn) [CCG-222740]	~100%	significantly decreased the expression of αSMA	significant decrease in scar tissue formation	present to a greater degree in the vehicle-treated group compared to	100%	88%	85%	less cytotoxic than CCG-203971	more effective at decreasing collagen matrix contraction than CCG-203971	more potent inhibitor of expression	decreased ACTA2 gene expression to a greater extent than CCG-203971
